Drawing on patent US9765067B2, “Thiophen-2-yl-pyridin-2-yl-1H-pyrazole-4-carboxylic acid derivatives and the use thereof as soluble guanylate cyclase activators” (Novartis AG, priority 2014, dated 2017), this text covers EC50 for 17 compounds.

SMILES strings stand for the structures. pEC50: −log10 of the molar value.

This test deals with T1, soluble guanylate cyclase (human GUCYA3/GUCYB3) overexpressed in CHO cells (Homo sapiens, UniProt Q02108+Q02153).
T1 construct: expressed in transfected cells
T1 sequence (Q02108 1-690 partner): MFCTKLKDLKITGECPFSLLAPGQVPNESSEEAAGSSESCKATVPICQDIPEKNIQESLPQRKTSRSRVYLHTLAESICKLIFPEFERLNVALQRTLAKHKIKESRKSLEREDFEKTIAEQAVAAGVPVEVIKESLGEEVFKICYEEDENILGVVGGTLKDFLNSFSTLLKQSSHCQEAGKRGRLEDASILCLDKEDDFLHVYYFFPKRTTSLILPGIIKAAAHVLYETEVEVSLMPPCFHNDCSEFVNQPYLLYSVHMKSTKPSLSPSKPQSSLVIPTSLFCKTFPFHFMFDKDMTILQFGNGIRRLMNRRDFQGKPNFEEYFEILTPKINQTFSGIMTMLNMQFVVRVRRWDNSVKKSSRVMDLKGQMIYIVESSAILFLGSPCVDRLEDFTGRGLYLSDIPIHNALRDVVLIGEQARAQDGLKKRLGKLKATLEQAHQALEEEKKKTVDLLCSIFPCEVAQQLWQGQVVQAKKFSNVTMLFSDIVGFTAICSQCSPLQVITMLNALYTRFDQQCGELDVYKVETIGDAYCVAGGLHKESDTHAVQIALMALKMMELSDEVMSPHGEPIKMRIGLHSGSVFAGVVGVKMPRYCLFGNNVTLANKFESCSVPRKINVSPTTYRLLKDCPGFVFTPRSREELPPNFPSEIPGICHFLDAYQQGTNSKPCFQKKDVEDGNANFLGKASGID
T1 sequence (Q02153 1-619): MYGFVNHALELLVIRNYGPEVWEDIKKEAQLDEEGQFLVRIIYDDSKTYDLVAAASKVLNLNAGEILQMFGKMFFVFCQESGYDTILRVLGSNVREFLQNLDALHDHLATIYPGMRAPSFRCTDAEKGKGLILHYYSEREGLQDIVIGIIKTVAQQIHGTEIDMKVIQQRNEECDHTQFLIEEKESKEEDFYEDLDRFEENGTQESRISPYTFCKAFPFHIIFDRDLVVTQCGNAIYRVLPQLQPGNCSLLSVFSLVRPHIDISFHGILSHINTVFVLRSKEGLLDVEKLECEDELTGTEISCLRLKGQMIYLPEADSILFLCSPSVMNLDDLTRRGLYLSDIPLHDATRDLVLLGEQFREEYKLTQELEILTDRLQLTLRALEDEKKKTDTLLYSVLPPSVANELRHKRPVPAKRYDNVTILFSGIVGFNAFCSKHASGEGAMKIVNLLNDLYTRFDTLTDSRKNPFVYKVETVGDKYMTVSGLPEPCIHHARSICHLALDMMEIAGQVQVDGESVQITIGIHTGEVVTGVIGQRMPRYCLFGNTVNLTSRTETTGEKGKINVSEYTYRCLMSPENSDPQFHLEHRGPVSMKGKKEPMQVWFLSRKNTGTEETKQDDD
Kind of test: CHO cellular assay (cGMP production, HTRF). It is filed as cell-based. To be noted: CHO K1 clone 8E10 overexpressing human sGC, Cisbio HTRF, 1 h room temperature, 1 mM IBMX, 20 uM ODQ, minimum quantification limit 0.5 nM. In short, it runs like this:
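Stable CHO K1 clone expressing human GUCYA3/GUCYB3. Compounds applied 1 h at room temperature in HBSS, 0.1% BSA, 1 mM IBMX, 20 uM ODQ, 0.5% DMSO. cGMP measured by HTRF and interpolated from a standard curve; EC50 from 4-parameter sigmoidal fit.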
(In general: In TR-FRET formats the signal depends on donor and acceptor labels being close together.)
On to `CCC(=O)N1CCC(c2ccc(OCc3ccsc3-c3cccc(-n4ncc(C(=O)O)c4C(F)(F)F)n3)c(C(F)(F)F)c2)CC1` [Example 33-2, (6-(3-((4-(1-Propionylpiperidin-4-yl)-2-(trifluoromethyl)phenoxy)methyl)thiophen-2-yl)pyridin-2-yl)-5-(trifluoromethyl)-1H-pyrazole-4-carboxylic acid], for which the pEC50 is 7.82.

`Cc1cc(C2CCN(C(=O)C3CC3)CC2)ccc1OCc1cc(C(C)C)sc1-c1cccc(-n2ncc(C(=O)O)c2C(F)(F)F)n1` [Example 35-1, 1-(6-(3-((4-(1-(Cyclopropanecarbonyl)piperidin-4-yl)-2-methylphenoxy)methyl)-5-isopropylthiophen-2-yl)pyridin-2-yl)-5-(trifluoromethyl)-1H-pyrazole-4-carboxylic acid]: the pEC50 was 7.02.

Compound `CCC(=O)N1CCC(c2ccc(OCc3cc(C(C)C)sc3-c3cccc(-n4ncc(C(=O)O)c4C(F)(F)F)n3)c(C)c2)CC1` [Example 35-2, 1-(6-(5-Isopropyl-3-((2-methyl-4-(1-propionylpiperidin-4-yl)phenoxy)methyl)thiophen-2-yl)pyridin-2-yl)-5-(trifluoromethyl)-1H-pyrazole-4-carboxylic acid] gave a pEC50 of 6.17. Then `CCCc1cc(COc2ccc(C3CCN(C(=O)CC)CC3)cc2C)c(-c2cccc(-n3ncc(C(=O)O)c3C(F)(F)F)n2)s1` [Example 35-3, 1-(6-(3-((2-Methyl-4-(1-propionylpiperidin-4-yl)phenoxy)methyl)-5-propylthiophen-2-yl)pyridin-2-yl)-5-(trifluoromethyl)-1H-pyrazole-4-carboxylic acid], with 6.71; and `Cc1cc(COc2ccc(C3CCN(C(=O)C4CC4)CC3)c(C)c2)c(-c2cccc(-n3ncc(C(=O)O)c3C(F)(F)F)n2)s1` [Example 35-4, 1-(6-(3-((4-(1-(Cyclopropanecarbonyl)piperidin-4-yl)-3-methylphenoxy)methyl)-5-methylthiophen-2-yl)pyridin-2-yl)-5-(trifluoromethyl)-1H-pyrazole-4-carboxylic acid], with 8.70. To `Cc1cc(OCc2ccsc2-c2cccc(-n3ncc(C(=O)O)c3C(F)(F)F)n2)ccc1C1CCN(C(=O)C2CC2)CC1` [Example 35-5, 1-(6-(3-((4-(1-(Cyclopropanecarbonyl)piperidin-4-yl)-3-methylphenoxy)methyl)thiophen-2-yl)pyridin-2-yl)-5-(trifluoromethyl)-1H-pyrazole-4-carboxylic acid] belongs 8.52; to `CCc1cc(OCc2cc(C)sc2-c2cccc(-n3ncc(C(=O)O)c3C(F)(F)F)n2)ccc1C1CCN(C(=O)N(C)C)CC1` [Example 35-7, 1-(6-(3-((4-(1-(Dimethylcarbamoyl)piperidin-4-yl)-3-ethylphenoxy)methyl)-5-methylthiophen-2-yl)pyridin-2-yl)-5-(trifluoromethyl)-1H-pyrazole-4-carboxylic acid], at least 9.30; to `CCc1cc(OCc2cc(C)sc2-c2cccc(-n3ncc(C(=O)O)c3C)n2)ccc1C1CCN(C(=O)N(C)C)CC1` [Example 35-8, 1-(6-(3-((4-(1-(Dimethylcarbamoyl)piperidin-4-yl)-3-ethylphenoxy)methyl)-5-methylthiophen-2-yl)pyridin-2-yl)-5-methyl-1H-pyrazole-4-carboxylic acid], at least 9.30. Then `CCc1cc(OCc2cc(C)sc2-c2cccc(-n3ncc(C(=O)O)c3CC)n2)ccc1C1CCN(C(=O)C2CC2)CC1` [Example 35-9, 1-(6-(3-((4-(1-(Cyclopropanecarbonyl)piperidin-4-yl)-3-ethylphenoxy)methyl)-5-methylthiophen-2-yl)pyridin-2-yl)-5-ethyl-1H-pyrazole-4-carboxylic acid], with at least 9.30; and `CCc1c(C(=O)O)cnn1-c1cccc(-c2sc(C)cc2COc2ccc(C3CCN(C(=O)C4CC4)CC3)cc2C)n1` [Example 35-10, 1-(6-(3-((4-(1-(Cyclopropanecarbonyl)piperidin-4-yl)-2-methylphenoxy)methyl)-5-methylthiophen-2-yl)pyridin-2-yl)-5-ethyl-1H-pyrazole-4-carboxylic acid], with at least 9.30.

In the case of `Cc1cc(COc2ccc(C3CCN(C(=O)C4CC4)CC3)c(C3CC3)c2)c(-c2cccc(-n3ncc(C(=O)O)c3C(F)(F)F)n2)s1` [Example 35-12, 1-(6-(3-((4-(1-(Cyclopropanecarbonyl)piperidin-4-yl)-3-cyclopropylphenoxy)methyl)-5-methylthiophen-2-yl)pyridin-2-yl)-5-(trifluoromethyl)-1H-pyrazole-4-carboxylic acid], the negative logarithm of the EC50 (pEC50) was 9.00. To `CCc1c(C2CCN(C(=O)C3CC3)CC2)ccc(OCc2cc(C)sc2-c2cccc(-n3ncc(C(=O)O)c3C(F)(F)F)n2)c1F` [Example 35-13, 1-(6-(3-((4-(1-(Cyclopropanecarbonyl)piperidin-4-y1)-3-ethyl-2-fluorophenoxy)methyl)-5-methylthiophen-2-yl)pyridin-2-yl)-5-(trifluoromethyl)-1H-pyrazole-4-carboxylic acid] belongs 9.00; to `CCc1cc(OCc2cc(C)sc2-c2cccc(-n3ncc(C(=O)O)c3C(F)(F)F)n2)cnc1C1CCN(C(=O)C2CC2)CC1` [Example 35-14, 1-(6-(3-(((6-(1-(Cyclopropanecarbonyl)piperidin-4-yl)-5-ethylpyridin-3-yl)oxy)methyl)-5-methylthiophen-2-yl)pyridin-2-yl)-5-(trifluoromethyl)-1H-pyrazole-4-carboxylic acid], 7.82; to `CCCc1cc(OCc2cc(C)sc2-c2cccc(-n3ncc(C(=O)O)c3C(F)(F)F)n2)ccc1C1CCN(C(=O)C2CC2)CC1` [Example 35-15, 1-(6-(3-((4-(1-(Cyclopropanecarbonyl)piperidin-4-yl)-3-propylphenoxy)methyl)-5-methylthiophen-2-yl)pyridin-2-yl)-5-(trifluoromethyl)-1H-pyrazole-4-carboxylic acid], 8.85. To `Cc1cc(C2CCN(C(=O)C3CC3)CC2)ccc1NC(C)c1ccsc1-c1cccc(-n2ncc(C(=O)O)c2C(F)(F)F)c1` (centres unmarked) [Example 36, 1-(3-(3-(1-((4-(1-(Cyclopropanecarbonyl)piperidin-4-yl)-2-methylphenyl)amino)ethyl)thiophen-2-yl)phenyl)-5-(trifluoromethyl)-1H-pyrazole-4-carboxylic acid] belongs 7.82. To `CCc1cc(NCc2cc(C)sc2-c2cccc(-n3ncc(C(=O)O)c3CC)n2)ccc1C1CCN(C(=O)C2CC2)CC1` [Example 37, 1-(6-(3-(((4-(1-(Cyclopropanecarbonyl)piperidin-4-yl)-3-ethylphenyl)amino)methyl)-5-methylthiophen-2-yl)pyridin-2-yl)-5-ethyl-1H-pyrazole-4-carboxylic acid] belongs at least 9.30.

`CCc1cc(NCc2c(C(F)(F)F)csc2-c2cccc(-n3ncc(C(=O)O)c3CC)n2)ccc1C1CCN(C(=O)C2CC2)CC1` [Example 38, 1-(6-(3-(((4-(1-(Cyclopropanecarbonyl)piperidin-4-yl)-3-ethylphenyl)amino)methyl)-4-(trifluoromethyl)thiophen-2-yl)pyridin-2-yl)-5-ethyl-1H-pyrazole-4-carboxylic acid] showed a pEC50 of at least 9.30.

Broadly, the pEC50 is the EC50 on a negative log10 scale, so that one unit is a factor of ten.
